IC50 data for 25 molecules are collected here from patent publication US11066414B2, “Cot modulators and methods of use thereof” (Gilead Sciences, Inc., priority 2015, dated 2021).

Molecules are shown by their SMILES.

In the first test the target is Human Cot (Homo sapiens (Human), UniProt P41279). Nature of the test: High Throughput Cot Biochemical Assay. The note with it: IC50 HTRF, Cot HTRF (TR-FRET) biochemical assay. In general terms: In TR-FRET formats the signal depends on donor and acceptor labels being close together.
Chain of Human Cot (P41279 30-397): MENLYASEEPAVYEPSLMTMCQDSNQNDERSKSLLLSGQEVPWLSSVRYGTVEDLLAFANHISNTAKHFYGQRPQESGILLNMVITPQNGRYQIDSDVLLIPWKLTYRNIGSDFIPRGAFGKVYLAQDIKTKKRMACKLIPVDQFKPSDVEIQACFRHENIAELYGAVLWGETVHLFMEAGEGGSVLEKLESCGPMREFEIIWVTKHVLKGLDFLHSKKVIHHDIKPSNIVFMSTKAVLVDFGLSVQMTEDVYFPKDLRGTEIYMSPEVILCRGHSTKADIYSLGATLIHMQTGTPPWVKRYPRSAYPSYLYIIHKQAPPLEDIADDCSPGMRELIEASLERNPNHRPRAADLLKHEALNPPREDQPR
In the case of `CC(C)(C)CNc1c(C#N)cnc2c(C#N)cc(N[C@H](c3cn(C4(C(F)(F)F)CC4)nn3)c3cccc4ncsc34)cc12` [Example 66, (S)-6-((benzo[d]thiazol-7-yl(1-(1-(trifluoromethyl)cyclopropyl)-1H-1,2,3-triazol-4-yl)methyl)amino)-4-(neopentylamino)quinoline-3,8-dicarbonitrile], the IC50 turned out to be 0.003 µM.
On to `CC(C)(C)CNc1c(C#N)cnc2c(Cl)cc(N[C@H](c3cn(C4CC4)nn3)c3csc4c3CCN(C3COC3)C4)cc12` [Example 80, (S)-8-chloro-6-(((1-cyclopropyl-1H-1,2,3-triazol-4-yl)(6-(oxetan-3-yl)-4,5,6,7-tetrahydrothieno[2,3-c]pyridin-3-yl)methyl)amino)-4-(neopentylamino)-quinoline-3-carbonitrile], for which the midpoint of inhibition, the IC50, lay at 0.001 µM.
On to `[2H]C(Nc1cc(Cl)c2ncc(C#N)c(NCC(C)(C)C)c2c1)(c1cn(C2CC2)nn1)c1ccc(F)nc1C` (stereo not shown) [Example 111, 8-chloro-6-(((1-cyclopropyl-1H-1,2,3-triazol-4-yl)(6-fluoro-2-methylpyridin-3-yl)methyl-d)amino)-4-(neopentylamino)quinoline-3-carbonitrile], for which inhibition was half-maximal at 0.002 µM (IC50).
Consider `[2H]C([2H])(Nc1c(C#N)cnc2c(Cl)cc(N[C@@]([2H])(c3ccc(F)nc3)c3cn(C4CC4)nn3)cc12)C(C)(C)C` [Example 112, (S)-8-chloro-6-(((1-cyclopropyl-1H-1,2,3-triazol-4-yl)(6-fluoropyridin-3-yl)methyl-d)amino)-4-((2,2-dimethylpropyl-1,1-d2)amino)quinoline-3-carbonitrile], for which the half-maximal inhibitory concentration (IC50) worked out at 0.002 µM.
The molecule `CCN1CCc2c([C@H](Nc3cc(Cl)c4ncc(C#N)c(Nc5ccc(F)c(Cl)c5)c4c3)c3c[nH]nn3)csc2C1` [Example 270, (S)-8-chloro-4-((3-chloro-4-fluoro-phenyl)amino)-6-(((6-ethyl-4,5,6,7-tetrahydrothieno[2,3-c]pyridin-3-yl)(1H-1,2,3-triazol-4-yl)methyl)-amino)quinoline-3-carbonitrile] displayed an IC50 of 0.004 µM.
Molecule `Cc1ncccc1[C@H](Nc1cc(Cl)c2ncc(C#N)c(Nc3ccc(F)c(Cl)c3)c2c1)c1cn(C(C)C)nn1` [Example 282, (S)-8-chloro-4-((3-chloro-4-fluorophenyl)amino)-6-(((1-isopropyl-1H-1,2,3-triazol-4-yl)(2-methylpyridin-3-yl)methyl)amino)-quinoline-3-carboni trile] displayed an IC50 of 0.003 µM.
`CC(C)n1cc([C@@H](Nc2cc(Cl)c3ncc(C#N)c(Nc4ccc(F)c(Cl)c4)c3c2)c2cncn2C)nn1` [Example 311, (S)-8-chloro-4-((3-chloro-4-fluorophenyl)amino)-6-(((1-isopropyl-1H-1,2,3-triazol-4-yl)(1-methyl-1H-imidazol-5-yl)methyl)amino)quinoline-3-carbonitrile] registered an IC50 of 0.03 µM.
Turning to `N#Cc1cnc2c(Cl)cc(N[C@H](c3cn(C4COC4)nn3)c3cc(Br)cnc3Cl)cc2c1Nc1ccc(F)c(Cl)c1` [Example 320, (S)-6-(((5-bromo-2-chloropyridin-3-yl)(1-(oxetan-3-yl)-1H-1,2,3-triazol-4-yl)methyl)amino)-8-chloro-4-((3-chloro-4-fluorophenyl)amino)quinoline-3-carbonitrile], the IC50 was 0.06 µM.
The molecule `N#Cc1cnc2c(Cl)cc(N[C@H](c3cn(CCO)nn3)c3cnc(Cl)cc3Cl)cc2c1Nc1ccc(F)c(Cl)c1` [Example 330, (S)-8-chloro-4-((3-chloro-4-fluorophenyl)amino)-6-(((4,6-dichloropyridin-3-yl)(1-(2-hydroxy-ethyl)-1H-1,2,3-triazol-4-yl)methyl)-amino)quinoline-3-carbonitrile] had an IC50 of 0.059 µM.
As to `N#Cc1csc([C@H](Nc2cc(Cl)c3ncc(C#N)c(Nc4ccc(F)c(Cl)c4)c3c2)c2cn(CCO)nn2)c1` [Example 333, (R)-8-chloro-4-((3-chloro-4-fluorophenyl)amino)-6-(((4-cyanothiophen-2-yl)(1-(2-hydroxyethyl)-1H-1,2,3-triazol-4-yl)methyl)amino)quinoline-3-carbonitrile], the 50% inhibitory concentration (IC50) was 0.003 µM.
On the same count and under the same terms, under `N#Cc1cnc2c(Cl)cc(N[C@@H](c3cccnc3)c3cn(CCO)nn3)cc2c1Nc1ccc(F)c(Cl)c1` [Example 336, (S)-8-chloro-4-((3-chloro-4-fluoro-phenyl)amino)-6-(((1-(2-hydroxyethyl)-1H-1,2,3-triazol-4-yl)(pyridin-3-yl)methyl)amino)quinoline-3-carbonitrile] stands 0.002 µM; under `COCCn1cc([C@@H](Nc2cc(Cl)c3ncc(C#N)c(Nc4ccc(F)c(Cl)c4)c3c2)c2cc(C#N)cs2)nn1` [Example 337, (R)-8-chloro-4-((3-chloro-4-fluorophenyl)amino)-6-(((4-cyanothiophen-2-yl)(1-(2-methoxy-ethyl)-1H-1,2,3-triazol-4-yl)methyl)amino)quinoline-3-carbonitrile], 0.016 µM.
In turn, `N#Cc1cnc2c(Cl)cc(N[C@@H](c3cscn3)c3cn(CCO)nn3)cc2c1Nc1ccc(F)c(Cl)c1` [Example 356, (S)-8-chloro-4-((3-chloro-4-fluorophenyl)amino)-6-(((1-(2-hydroxyethyl)-1H-1,2,3-triazol-4-yl)(thiazol-4-yl)methyl)amino)-quinoline-3-carbonitrile] displayed a concentration for half-maximal inhibition (IC50) of 0.002 µM.
As for `CCN1CCC(n2cc([C@@H](Nc3cc(Cl)c4ncc(C#N)c(Nc5ccc(F)c(Cl)c5)c4c3)c3ccc(C(F)(F)F)s3)nn2)CC1` [Example 365, (R)-8-chloro-4-((3-chloro-4-fluorophenyl)amino)-6-(((1-(1-ethylpiperidin-4-yl)-1H-1,2,3-triazol-4-yl)(5-(trifluoromethyl)thiophen-2-yl)methyl)amino)quinoline-3-carbonitrile], the 50% inhibitory concentration (IC50) stood at 0.038 µM.
On the same count and under the same terms, under `CC(C)(C)OC(=O)N1CCC(n2cc([C@@H](Nc3cc(Cl)c4ncc(C#N)c(Nc5ccc(F)c(Cl)c5)c4c3)c3cncs3)nn2)CC1` [Example 384, tert-butyl (R)-4-(4-(((8-chloro-4-((3-chloro-4-fluorophenyl)amino)-3-cyanoquinolin-6-yl)amino)(thiazol-5-yl)methyl)-1H-1,2,3-triazol-1-yl)piperidine-1-carboxylate] stands 0.153 µM.
`N#Cc1cnc2c(Cl)cc(N[C@H](c3cn(C4CCNCC4)nn3)c3ccc(Cl)s3)cc2c1Nc1ccc(F)c(Cl)c1` [Example 386, (R)-8-chloro-4-((3-chloro-4-fluoro-phenyl)amino)-6-(((5-chlorothiophen-2-yl)(1-(piperidin-4-yl)-1H-1,2,3-triazol-4-yl)methyl)amino)quinoline-3-carbonitrile] returned an IC50 of 0.036 µM.
In turn, `N#Cc1cnc2c(Cl)cc(N[C@H](c3cn(C4CCNCC4)nn3)c3sccc3Cl)cc2c1Nc1ccc(F)c(Cl)c1` [Example 387, (R)-8-chloro-4-((3-chloro-4-fluoro-phenyl)amino)-6-(((3-chlorothiophen-2-yl)(1-(piperidin-4-yl)-1H-1,2,3-triazol-4-yl)methyl)amino)quinoline-3-carbonitrile] had an IC50 of 0.018 µM.
Molecule `N#Cc1cnc2c(Cl)cc(N[C@H](c3cn(C4CCNCC4)nn3)c3cccs3)cc2c1Nc1ccc(F)c(Cl)c1` [Example 388, (R)-8-chloro-4-((3-chloro-4-fluoro-phenyl)amino)-6-(((1-(piperidin-4-yl)-1H-1,2,3-triazol-4-yl)(thiophen-2-yl)methyl)amino)quinoline-3-carbonitrile] showed an IC50 of 0.01 µM.
Turning to `CCN1CCC(n2cc([C@@H](Nc3cc(Cl)c4ncc(C#N)c(Nc5ccc(F)c(Cl)c5)c4c3)c3ccsc3)nn2)CC1` [Example 392, (S)-8-chloro-4-((3-chloro-4-fluoro-phenyl)amino)-6-(((1-(1-ethylpiperidin-4-yl)-1H-1,2,3-triazol-4-yl)(thiophen-3-yl)methyl)amino)quinoline-3-carbonitrile], half-maximal inhibition (IC50) was put at 0.003 µM.
In turn, `CC(C)(C)OC(=O)N1CCC(n2cc([C@@H](Nc3cc(Cl)c4ncc(C#N)c(Nc5ccc(F)c(Cl)c5)c4c3)c3ccsc3)nn2)CC1` [Example 394, tert-butyl (S)-4-(4-(((8-chloro-4-((3-chloro-4-fluorophenyl)amino)-3-cyanoquinolin-6-yl)amino)(thiophen-3-yl)methyl)-1H-1,2,3-triazol-1-yl)piperidine-1-carboxylate] yielded an IC50 of 0.147 µM.

The same test, now with this note: read-out: IC50 HTRF; Cot HTRF (TR-FRET) biochemical assay.
As to `CC(C)(C)N1CCC(n2cc([C@@H](Nc3cc(Cl)c4ncc(C#N)c(NC5CCCCC5)c4c3)c3cccnc3)nn2)CC1` [Example 287, (S)-6-(((1-(1-(tert-butyl)piperidin-4-yl)-1H-1,2,3-triazol-4-yl)(pyridin-3-yl)methyl)amino)-8-chloro-4-(cyclohexylamino)quinoline-3-carbonitrile], the IC50 came to 0.02 µM.
As to `CC(C)n1cc([C@@H](Nc2cc(Cl)c3ncc(C#N)c(Nc4ccc(F)c(Cl)c4)c3c2)c2cc(Br)cnc2Cl)nn1` [Example 293, (S)-6-(((5-brorno-2-chloropyridin-3-yl)(1-isopropyl-1H-1,2,3-triazol-4-yl)methyl)amino)-8-chloro-4-((3-chloro-4-fluorophenyl)-amino)quinoline-3-carbonitrile], the concentration for half-maximal inhibition (IC50) came out at 0.032 µM.
As for `N#Cc1csc([C@H](Nc2cc(Cl)c3ncc(C#N)c(Nc4ccc(F)c(Cl)c4)c3c2)c2cn(CCN3CCOCC3)nn2)c1` [Example 332, (R)-8-chloro-4-((3-chloro-4-fluorophenyl)amino)-6-(((4-cyanothiophen-2-yl)(1-(2-morpho-linoethyl)-1H-1,2,3-triazol-4-yl)methyl)amino)quinoline-3-carbonitrile], the IC50 was found to be 0.065 µM.
Consider `Cn1cc([C@H](Nc2cc(Cl)c3ncc(C#N)c(Nc4ccc(F)c(Cl)c4)c3c2)c2cccnc2)nn1` [Example 343, (R)-8-chloro-4-((3-chloro-4-fluorophenyl)amino)-6-(((1-methyl-1H-1,2,3-triazol-4-yl)(pyridin-3-yl)methyl)amino)quinoline-3-carbonitrile], for which the IC50 is 0.504 µM.
On to `N#Cc1cnc2c(Cl)cc(N[C@@H](c3ccsc3)c3cn(C4CCNCC4)nn3)cc2c1Nc1ccc(F)c(Cl)c1` [Example 393, (S)-8-chloro-4-t-((3-chloro-4-fluoro-phenyl)amino)-6-(((1-(piperidin-4-yl)-1H-1,2,3-triazol-4-yl)(thiophen-3-yl)methyl)amino)quinoline-3-carbonitrile], for which the IC50 came out at 0.005 µM.

One may read the IC50 as the concentration at which inhibition is half-maximal.
